In PubChem BioAssay AID2060612 (Molecular Pharmacology Branch, DTP, NCI, 2025):

Tested on: 565232-114-T-J1-PDC complex spheroid viability
Assay: Anticancer human tumor 565232-114-T-J1-PDC patient-derived bladder carcinoma cell line growth inhibition [CLK]
Conditions: for IC50: curve of first compound; for viability, T/C: stronger effect = lower value
Method in brief: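 Multi-cell-type spheroids combined patient-derived tumor cells with HUVEC endothelial cells and human mesenchymal stem cells. Paired agents were dosed in half-log steps down from about clinical Cmax, or from 10 microM where Cmax was unknown.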
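Note: spheroids exposed to compounds for 7 days before readout.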
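Throughout, for viability, T/C: 100% = DMSO vehicle wells with luminescence normalized to vehicle control.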

IC50 (second compound 0.0316 µM): > 10000 nM
IC50 (second compound 0.1 µM): < 31.6 nM
IC50 (second compound 0.316 µM): < 31.6 nM
IC50 (second compound 1 µM): < 31.6 nM
IC50 (second compound 3.16 µM): < 31.6 nM
IC50 (second compound 10 µM): < 31.6 nM
SMILES: COc1ccc([C@@H](O)c2cc(-c3ncnc4cc(N5CCOCC5)ccc34)c(F)cc2Cl)nn1 + CNC(=O)c1ccc(Nc2nc(OC3CCCC3)c3c(-c4ccc5nc(C)oc5c4)c[nH]c3n2)c(OC)c1
viability, T/C (second compound 0.0316 µM, first compound 0.0316 µM): 87.3%
viability, T/C (second compound 0.0316 µM, first compound 0.1 µM): 87.1%
viability, T/C (second compound 0.0316 µM, first compound 0.316 µM): 98.5%
viability, T/C (second compound 0.0316 µM, first compound 1 µM): 113%
viability, T/C (second compound 0.0316 µM, first compound 3.16 µM): 115%
viability, T/C (second compound 0.0316 µM, first compound 10 µM): 88.6%
viability, T/C (second compound 0.1 µM, first compound 0.0316 µM): 47%
viability, T/C (second compound 0.1 µM, first compound 0.1 µM): 41.6%
viability, T/C (second compound 0.1 µM, first compound 0.316 µM): 36.9%
viability, T/C (second compound 0.1 µM, first compound 1 µM): 34.3%
viability, T/C (second compound 0.1 µM, first compound 3.16 µM): 34.6%
viability, T/C (second compound 0.1 µM, first compound 10 µM): 35.8%
viability, T/C (second compound 0.316 µM, first compound 0.0316 µM): 26.4%
viability, T/C (second compound 0.316 µM, first compound 0.1 µM): 29.9%
viability, T/C (second compound 0.316 µM, first compound 0.316 µM): 27.9%
viability, T/C (second compound 0.316 µM, first compound 1 µM): 32%
viability, T/C (second compound 0.316 µM, first compound 3.16 µM): 24.5%
viability, T/C (second compound 0.316 µM, first compound 10 µM): 24.8%
viability, T/C (second compound 1 µM, first compound 0.0316 µM): 23.8%
viability, T/C (second compound 1 µM, first compound 0.1 µM): 22.1%
viability, T/C (second compound 1 µM, first compound 0.316 µM): 19.9%
viability, T/C (second compound 1 µM, first compound 1 µM): 22.1%
viability, T/C (second compound 1 µM, first compound 3.16 µM): 23%
viability, T/C (second compound 1 µM, first compound 10 µM): 19.2%
viability, T/C (second compound 3.16 µM, first compound 0.0316 µM): 15.7%
viability, T/C (second compound 3.16 µM, first compound 0.1 µM): 19.6%
viability, T/C (second compound 3.16 µM, first compound 0.316 µM): 17.4%
viability, T/C (second compound 3.16 µM, first compound 1 µM): 14.5%
viability, T/C (second compound 3.16 µM, first compound 3.16 µM): 14.9%
viability, T/C (second compound 3.16 µM, first compound 10 µM): 13.6%
viability, T/C (second compound 10 µM, first compound 0.0316 µM): 19%
viability, T/C (second compound 10 µM, first compound 0.1 µM): 17.1%
viability, T/C (second compound 10 µM, first compound 0.316 µM): 14.4%
viability, T/C (second compound 10 µM, first compound 1 µM): 15.9%
viability, T/C (second compound 10 µM, first compound 3.16 µM): 15.2%
viability, T/C (second compound 10 µM, first compound 10 µM): 15.8%
